Values quoted from earlier work in patent US20050113418A1, “Administration of pharmaceuticals” (priority 1996, published 2005).

Settings: Lind et al, Gut 1983

plasma half-life: 30 to 60 min
Compound: COc1ccc2[nH]c([S+]([O-])Cc3ncc(C)c(OC)c3C)nc2c1 (stereo not shown) [Omeprazole, omeprazole]
